Measurements taken from patent US12275688B2, “Crystalline solids of MEK inhibitor N-((R)-2,3-dihydroxypropoxy)-3,4-difluoro-2-(2-fluoro-4-iodo-phenylamino)-benzamide and uses thereof” (SpringWorks Therapeutics, Inc., priority 2021, dated 2025).
Converted amounts (≈) assume the structure as drawn. “Also recorded” adds a separate entry of the source. Where two headings read alike, the source gives them in different places.

What was measured:
Format in all cases: physicochemical
[1] = Solid-state stability of crystal forms at ambient conditions
Description: The following sections describe and summarize the physical properties of each of the crystal forms observed for mirdametinib.

[2] = Physical stability of amorphous mirdametinib on storage (PXRD, PLM)
Protocol: Solutions of mirdametinib (100 mg/mL) were prepared in methanol and THF, and each solution was divided into three equal parts to be used for 1) open at RT stability evaluation, 2) closed at RT stability evaluation, and 3) closed at −20° C. stability evaluation.
PXRD analyses of all six samples (three from both methanol and THF) following rapid evaporation indicated an amorphous state. Other analyses (e.g. PLM, TGA-IR, DSC) were performed on one sample from each solvent. Following initial analyses, one sample from each solvent was stored at RT in an open vial, at RT in a capped vial, and at −20° C. in a capped vial.

[3] = Approximate kinetic solubility (visual, solvent aliquot addition); details: thermodynamic from solid; for solubility: read-out: Solubility (mg/mL)at RT (23° C.); for solubility at 1 h: heated to 40° C. for 1 hour, read-out: Solubility (mg/mL) at 40° C.
Protocol: Solubility of mirdametinib prepared by Example 3 was assessed in 30 solvents. The solubility was visually estimated at room temperature (RT; ˜23° C.) by dosing small aliquots of solvent into a fixed amount of solid (˜10 mg) until the dissolution point or a maximum volume (1.8 mL) was reached. Samples that contained undissolved solids at RT were heated to 40° C. for 1 hour and the dissolution was assessed visually. The solubility data are shown below in Table 1.

O=C(NOC[C@H](O)CO)c1ccc(F)c(F)c1Nc1ccc(I)cc1F [Form XIV, N—((R)-2,3-dihydroxypropoxy)-3,4-difluoro-2-(2-fluoro-4-iodo-phenylamino)-benzamide]
Conversion at ambient conditions (in words) ([1]; ambient conditions): convert to Form IV within four days

O=C(NOC[C@H](O)CO)c1ccc(F)c(F)c1Nc1ccc(I)cc1F [Form A-2a]
Solid state by PXRD and PLM after one day ([2]; open vial at RT): crystallization to Form IV

O=C(NOC[C@H](O)CO)c1ccc(F)c(F)c1Nc1ccc(I)cc1F [Form XXI, N—((R)-2,3-dihydroxypropoxy)-3,4-difluoro-2-(2-fluoro-4-iodo-phenylamino)-benzamide]
Conversion noted under Nature of Solvate (Table 2) [1]: (converts to Form IV)

O=C(NOC[C@H](O)CO)c1ccc(F)c(F)c1Nc1ccc(I)cc1F [mirdametinib, N—((R)-2,3-dihydroxypropoxy)-3,4-difluoro-2-(2-fluoro-4-iodo-phenylamino)-benzamide]
solubility ([3]; 1-propanol, 23 °C, organic solvent or mixture): 101 to 202 mg/mL (≈ 209 to 419 mM)
solubility ([3]; 2-methyl-2-butanol, 23 °C, organic solvent or mixture): 97 to 194 mg/mL (≈ 201 to 402 mM)
solubility ([3]; 2-propanol (IPA), 23 °C, organic solvent or mixture): 98 to 196 mg/mL (≈ 203 to 406 mM)
solubility ([3]; 23 °C, organic solvent or mixture, 2-Propanol: water (9:1 v/v)): > 400 mg/mL
solubility ([3]; DMF (dimethylformamide), 23 °C, organic solvent or mixture): > 408 mg/mL
solubility ([3]; Dioxane, 23 °C, organic solvent or mixture): > 408 mg/mL
solubility ([3]; Ethanol/Water (9:1 v/v), 23 °C, organic solvent or mixture): > 424 mg/mL
solubility ([3]; MIBK (4-methyl-2-pentanone), 23 °C, organic solvent or mixture): 48 to 95 mg/mL (≈ 99.5 to 197 mM)
solubility ([3]; MTBE (methyl-t-butylether), 23 °C, organic solvent or mixture): < 6 mg/mL
solubility ([3]; MeCN/Water (7:3 v/v), 23 °C, organic solvent or mixture): > 408 mg/mL
solubility ([3]; MeCN/water (8:2 v/v), 23 °C, organic solvent or mixture): > 412 mg/mL
solubility ([3]; acetic acid (HOAc), 23 °C, organic solvent or mixture): > 388 mg/mL
solubility ([3]; acetone, 23 °C, organic solvent or mixture): > 400 mg/mL
solubility ([3]; acetonitrile (MeCN), 23 °C, organic solvent or mixture): 19 to 49 mg/mL (≈ 39.4 to 102 mM)
solubility ([3]; chloroform, 23 °C, organic solvent or mixture): < 6 mg/mL
solubility ([3]; cyclohexane, 23 °C, organic solvent or mixture): < 6 mg/mL
solubility ([3]; dichloromethane (DCM), 23 °C, organic solvent or mixture): < 6 mg/mL
solubility ([3]; dimethyl sulfoxide (DMSO), 23 °C, organic solvent or mixture): > 388 mg/mL
solubility ([3]; dimethylcarbonate (DMC), 23 °C, organic solvent or mixture): 10 to 19 mg/mL (≈ 20.7 to 39.4 mM)
solubility ([3]; ethanol, 23 °C, organic solvent or mixture): 208 to 416 mg/mL (≈ 431 to 863 mM)
solubility ([3]; ethanol/toluene (9:1), 23 °C, organic solvent or mixture): 210 to 420 mg/mL (≈ 436 to 871 mM)
solubility ([3]; ethyl acetate (EtOAc), 23 °C, organic solvent or mixture): 48 to 95 mg/mL (≈ 99.5 to 197 mM)
solubility ([3]; isopropyl ether (IPE), 23 °C, organic solvent or mixture): < 6 mg/mL
solubility ([3]; methanol (MeOH), 23 °C, organic solvent or mixture): > 380 mg/mL
solubility ([3]; nitromethane, 23 °C, organic solvent or mixture): 10 to 20 mg/mL (≈ 20.7 to 41.5 mM)
solubility at 1 h ([3]; organic solvent or mixture, Chloroform): < 6 mg/mL
solubility at 1 h ([3]; organic solvent or mixture, Cyclohexane): < 6 mg/mL
solubility at 1 h ([3]; organic solvent or mixture, Dichloromethane (DCM)): > 6 mg/mL
solubility at 1 h ([3]; organic solvent or mixture, Isopropyl ether (IPE)): < 6 mg/mL
solubility at 1 h ([3]; organic solvent or mixture, MTBE (methyl-t-butylether)): > 6 mg/mL
solubility ([3]; organic solvent or mixture, Tert-butanol (t-BuOH), solubility determined at 30° C. (footnote)): 6 to 10 mg/mL (≈ 12.4 to 20.7 mM)
solubility at 1 h ([3]; organic solvent or mixture, Toluene): < 6 mg/mL
solubility ([3]; tetrahydrofuran (THF), 23 °C, organic solvent or mixture): > 396 mg/mL
solubility at 1 h ([3]; Water): < 6 mg/mL
solubility ([3]; toluene, 23 °C, organic solvent or mixture): < 6 mg/mL
solubility ([3]; trifluoroethanol (TFE), 23 °C, organic solvent or mixture): 7 to 12 mg/mL (≈ 14.5 to 24.9 mM)
solubility ([3]; water, 23 °C, water): < 6 mg/mL

O=C(NOC[C@H](O)CO)c1ccc(F)c(F)c1Nc1ccc(I)cc1F [Form XX, N—((R)-2,3-dihydroxypropoxy)-3,4-difluoro-2-(2-fluoro-4-iodo-phenylamino)-benzamide]
Time to convert to Form IV at ambient conditions ([1]; ambient conditions): ≤ 10 days

O=C(NOC[C@H](O)CO)c1ccc(F)c(F)c1Nc1ccc(I)cc1F [Amorphous mirdametinib, N—((R)-2,3-dihydroxypropoxy)-3,4-difluoro-2-(2-fluoro-4-iodo-phenylamino)-benzamide]
Physically stable for ([2]; open and closed vials at RT): at least 24 hours

O=C(NOC[C@H](O)CO)c1ccc(F)c(F)c1Nc1ccc(I)cc1F [Form A-1]
Results (solid form after 1 day at ambient) [2]: Amorphous

O=C(NOC[C@H](O)CO)c1ccc(F)c(F)c1Nc1ccc(I)cc1F [Form A-1a]
Solid state by PXRD and PLM after one day ([2]; open vial at RT): no crystallization

O=C(NOC[C@H](O)CO)c1ccc(F)c(F)c1Nc1ccc(I)cc1F [A- 2]
Results (solid form after 1 day at ambient) [2]: Form IV

O=C(NOC[C@H](O)CO)c1ccc(F)c(F)c1Nc1ccc(I)cc1F [Form VIII, N—((R)-2,3-dihydroxypropoxy)-3,4-difluoro-2-(2-fluoro-4-iodo-phenylamino)-benzamide]
Stable at ambient conditions for ([1]; ambient conditions): ≥ 2 days

O=C(NOC[C@H](O)CO)c1ccc(F)c(F)c1Nc1ccc(I)cc1F [Form IX, N—((R)-2,3-dihydroxypropoxy)-3,4-difluoro-2-(2-fluoro-4-iodo-phenylamino)-benzamide]
Conversion at ambient conditions (in words) ([1]; ambient conditions): significant conversion toward Form IV after 20 hours; also recorded: slowly convert to Form IV

O=C(NOC[C@H](O)CO)c1ccc(F)c(F)c1Nc1ccc(I)cc1F [Form A-1b]
Solid state by PXRD and PLM after one day ([2]; capped vial at RT): no crystallization
